This passage reports mass density and refractive index results from the NIST ThermoML archive (doi:10.1016/j.jct.2004.07.024).

Numbers after ± are expanded uncertainties.

For data set [1] the following is noted: 298.15 K; 101.33 kPa; Liquid.
Data set [2] is described as follows: refractive index (Na D-line) (dimensionless). Conditions: 293.15 K; 101.33 kPa; Liquid; Standard Abbe refractometry.

A word on the mass density: it is mass per unit of volume. For orientation: refractive index means a measure of how strongly the sample bends light. In the case of `CCc1ccccc1` [ethylbenzene], in data set [1], the mass density is on record as 862.44 ± 0.55 kg/m3. The refractive index in data set [2] stood at 1.4962 ± 0.0005.
With `Cc1ccccc1` [toluene], the mass density in data set [1] is 862.14 ± 0.94 kg/m3. For the same compound, the refractive index in data set [2] is on record as 1.4965 ± 0.0006.
The corresponding values for `c1ccccc1` [benzene] are 873.56 ± 0.35 kg/m3 and 1.5009 ± 0.0004.
Regarding `C[S+](C)[O-]` [dimethyl sulfoxide], the mass density in data set [1] amounted to 1095.62 ± 0.32 kg/m3. The refractive index in data set [2] is on record as 1.4785 ± 0.0004.
The matching figures for `C=Cc1ccccc1` [styrene]: 901.51 ± 0.54 kg/m3 and 1.546 ± 0.0005.
